Results on one compound are retold here after patent US20100120879A1, “INSECTICIDES AS SAFENER FOR FUNGICIDES WITH PHYTOTOXIC ACTION” (priority 2007, published 2010).

Series [1] concerns soybeans, variety "Conquista". As to the kind of experiment: Vitality of the plants 14 days after sowing (visual score). The note with it: visual scale 0 to 10, untreated = 5, each point = 20% improvement or deterioration, triticonazole 50 g, fipronil 50 g, gibberellic acid 1 g a.s. per 100 kg seeds.
Another series concerns wheat. As to conditions: wheat treated with the azole fungicide; F. Montfort et al., Pesticide Science 46(4), 1996; cited from earlier work.
The test system of another series is Phakopsora pachyrhizi. As to the kind of experiment: Fungicidal activity against soybean rust after seed treatment. It is filed as in vivo. As to conditions: triticonazole 50 g, fipronil 50 g, gibberellic acid 1 g a.s. per 100 kg seeds.

For `CC1(C)CCC(=Cc2ccc(Cl)cc2)C1(O)Cn1cncn1` (centres unmarked) [Triticonazole, triticonazole], the Vitality in series [1] was 2. In addition, the “Longitudinal growth of treated wheat” value with wheat is given as “greatly reduced longitudinal growth”. Besides, the “Infection (percentage of diseased leaf area)” value in the series with Phakopsora pachyrhizi (leaves in the middle part of the plant, 35 days after sowing, untreated 10.5) is 9%; with Phakopsora pachyrhizi (lower part of the plant, 21 days after sowing, untreated 8.5), 0%; in the series with Phakopsora pachyrhizi (lower part of the plant, 35 days after sowing, untreated 70), 47%.
